{"source": "patent US20200339953A1", "about": "“HEMATOPOIETIC STEM AND PROGENITOR CELL THERAPY” (priority 2010, published 2020)", "key": {"CD34^+ cells [1]": {"tested_on": "CD34^+ cells", "assay": "Competitive cAMP assay (LANCE cAMP detection kit)", "format": "cell-based, human", "description": "The cAMP assay was performed on CD34^+ cells using the LANCE® cAMP detection kit (Perkin Elmer Inc., Waltham, Mass.) according to the manufacturer's instructions. Briefly, 3,000 CD34^+ cells (Stem Cell Technologies, Vancouver, Canada) were aliquoted in each well of a 384-well opaque white plate in the recommended stimulation buffer. Assays were performed in triplicate for all conditions.\nCD34^+ cells were placed on ice prior to being stimulated with DMSO or 16,16-dimethyl PGE2 at 4° C. For assays conducted at other temperatures, e.g., 25° C. or 37° C., DMSO or 16,16-dimethyl PGE2 was added to CD34^+ cells at room temperature and then the plates were incubated with DMSO or 16,16-dmPGE2 at the experimental temperature (25° C. or 37° C.).\nCD34^+ cells were incubated for periods of 5, 15, 30, 60 or 120 minutes. Following the incubation period, detection buffer was added to the stimulated cells and cells were incubated for an additional 1 hour at room temperature in detection buffer, regardless of stimulation temperature. The assay plates were analyzed using an EnVision® 2104 Multilabel Reader (Perkin Elmer) according to the manufacturer's instructions.\nA competitive cAMP assay was performed using CD34^+ cells to determine the effects of time (incubation for 15, 30, 60, or 120 minutes), temperature (incubation at 4° C., 25° C., or 37° C.), and final 16,16-dimethyl PGE2 concentration (1 μM, 10 μM, 50 μM, or 100 μM) on cAMP production in the cells."}, "[2]": {"tested_on": "human CD34^+ cord blood (hCD34^+ CB) cells", "assay": "In vitro chemotaxis assay towards SDF1α", "format": "cell-based", "conditions": "10 μM, 4 hours, 37° C.; 50 ng/ml SDF1α vs DMSO or 0 ng/ml SDF1α", "description": "Chemotaxis assays were performed using 96-well chemotaxis chambers, […] pore size polycarbonate membrane (Corning Inc., Corning, N.Y.) in accordance with manufacturer's instructions. Briefly, human CD34^+ cord blood (hCD34^+ CB) cells were obtained from All Cells and were thawed according to manufacturer's instruction. The cells were then treated for 4 hours at 37° C. with 16,16-dimethyl PGE2 or DMSO control at a concentration of 10 μM in StemSpan media (Stem Cell Technology, Vancouver, Canada). The cells were then washed by centrifugation (300 g for 10 minutes) and resuspended in transwell assay buffer (Phenol Red Free RPMI media (Mediatech), 0.5% lipid free BSA (Sigma-Aldrich) at a concentration of 40,000-60,000 cells/75 ul. Seventy-five μl of cell suspension was added to the upper chamber of the plate, while 235 μl of transwell assay media containing 0 or 50 ng/ml SDF1α (R&D system, Minneapolis, Minn.) was added to the bottom well. Total cell number in the lower well was obtained by flow cytometry, using 7AAD (BD Biosciences) to exclude dead cells, after 4 hours of incubation at 37° C., 5% CO2. […] Percent migration was calculated by dividing the number of the cells in the lower well by the total cell input multiplied by 100. Samples were analyzed in triplicate, the data was then averaged for statistical analysis."}, "CD34^+ cells [3]": {"tested_on": "CD34^+ cells", "assay": "Whole genome expression arrays (Affymetrix GeneChip)", "format": "cell-based, human", "description": "Human umbilical cord blood and pre-isolated CD34^+ cells from human umbilical cord blood were purchased from Stem Cell Technologies Inc. (Vancouver, BC, Canada). Cells were incubated in either low molecular weight dextran with 5% human serum albumin media (LMD/5% HSA) or Stem Span media (Stem Cells Technology Inc.) for ex vivo treatment with 16,16-dimethyl PGE2. Total RNA was isolated from incubated cells using a Pico Pure RNA Isolation Kit (Molecular Devices, Sunnyvale, Calif.).\nBiotinylated amplified RNA (aRNA) was prepared using the standard protocol for MessageAmp II aRNA Amplification Kit (Applied Biosystems/Ambion, Austin, Tex.) and the optional Second Round Amplification; the copy RNA (cRNA) was transcribed into biotin labeled aRNA using MessageAmp II Biotin Enhanced Kit (Applied Biosystems/Ambion, Austin, Tex.) according to the manufacturer's instructions. Biotin labeled aRNA was purified and fragmented according to the Applied Biosystems protocols. 20 μg of fragmented aRNA was hybridized to Human Genome U133 Plus 2.0 GeneChips (Affymetrix Inc., Santa Clara, Calif.) for 16 hrs at 45° C.\nThe GeneChips were washed and stained in the Affymetrix Fluidics Station 450 and scanned using the Affymetrix GeneChip Scanner 3000 7G. The image data were analyzed using Affymetrix Expression Console software and default analysis settings. GeneChip expression data were normalized by log scale robust multi-array analysis (RMA) and visualized in Spotfire for Genomics 3.1 (Tibco Spotfire, Palo Alto, Calif.). Pathway analysis was performed in MetaCore. (GeneGo, St. Joseph, Mich.).\nGeneChip technology was used to determine the effects of time (incubation for 5, 15, 20, 30, 40, 60, 80, 100, 120, 180, or 240 minutes), temperature (incubation at 4° C., 25° C., or 37° C.), and final 16,16-dimethyl PGE2 concentration (0.1 μm, 1 μM, 10 μM, 50 μM, or 100 μM) on cellular gene expression.\nGene expression profiles were analyzed for CD34^+ cells incubated with 10 μM 16,16-dimethyl PGE2 at 37° C. for 5, 15, 30, 60, or 120 minutes. For incubation (e.g., treatment) periods less than 120 minutes, the cells were washed in media to remove the 16,16-dimethyl PGE2 and then the cells were incubated for the remaining period in media to allow time for changes in gene expression to take place (See FIG. 5)."}}, "note": "Entries after “also recorded” stand apart in the source; their conditions may differ.", "data": [{"smiles": "CCCCC(C)(C)[C@H](O)/C=C/[C@H]1[C@H](O)CC(=O)[C@@H]1C/C=C\\CCCC(=O)O", "note": "[16,16-dimethyl PGE2]", "values": [{"measurement": "cAMP production compared to DMSO controls", "setting": "CD34^+ cells [1]; 4° C., 1, 10, 50 and 100 μM, p>0.05", "value": "No statistically significant increase"}, {"measurement": "time in which the cAMP response reached maximal levels", "setting": "CD34^+ cells [1]; 37° C.", "value": 15, "unit": "min"}, {"measurement": "cAMP activity compared to DMSO control", "setting": "CD34^+ cells [1]; 37° C. and 25° C., 5 min up to 2 hours, 1, 10, 50 and 100 μM, p<0.001", "value": "statistically significant increase"}, {"measurement": "threshold concentration above which the cAMP response was relatively dose-insensitive", "setting": "CD34^+ cells [1]; CD34+ cells", "value": 10, "unit": "µM"}, {"measurement": "incubation time of maximal cAMP response", "setting": "CD34^+ cells [1]; CD34+ cells, FIG. 3", "value": "30 to 60", "unit": "min"}, {"measurement": "number of migrating CD34+ cells", "setting": "[2]", "value": "significantly increased"}, {"measurement": "signature gene expression changes after very short incubation", "setting": "CD34^+ cells [3]; 10 μM, 37° C., 5-15 minutes, assessed after 120 minutes total", "value": "minimal gene expression changes"}, {"measurement": "incubation time after which gene expression changes were apparent", "setting": "CD34^+ cells [3]; 10 μM, 37° C., assessed after 120 minutes total", "value": 30, "unit": "min"}, {"measurement": "genes downregulated", "setting": "CD34^+ cells [3]; 10 μM, 120 minutes, 37° C.", "value": 243, "unit": "genes"}, {"measurement": "genes modulated at a statistically significant level, total", "setting": "CD34^+ cells [3]; 10 μM, 120 minutes, 37° C.", "value": 608, "unit": "genes"}, {"measurement": "genes upregulated", "setting": "CD34^+ cells [3]; 10 μM, 120 minutes, 37° C.", "value": 365, "unit": "genes"}, {"measurement": "fold increase in CXCR4 expression", "setting": "CD34^+ cells [3]; 10 μM, 120 minutes, 37° C., relative to DMSO/vehicle treated control", "value": 18, "unit": "fold"}, {"measurement": "fold increase in CREM expression (FIG. 4)", "setting": "CD34^+ cells [3]; 10 μM, vs vehicle treated CD34+ cells", "value": 8, "unit": "fold"}, {"measurement": "Fold change (increases) AREG", "setting": "CD34^+ cells [3]; Amphiregulin, CD34+ cells, 10 μM, 120 minutes, 37° C. vs DMSO", "value": 23.32, "unit": "fold"}, {"measurement": "gene expression changes at 100 μM at 4° C. and 25° C. compared with 10 μM at 37° C.", "setting": "CD34^+ cells [3]; CD34+ cells", "value": "smaller gene expression changes"}, {"measurement": "gene expression associated with apoptosis or cell death", "setting": "CD34^+ cells [3]; CD34+ cells incubated at 37° C.", "value": "no increase in gene expression associated with apoptosis or cell death; also recorded: no increase in gene expression of apopotosis or cell death associated genes"}, {"measurement": "concentration at which the full gene expression signature was reproduced", "setting": "CD34^+ cells [3]; CD34+ cells, 120 minutes, 37° C., no further substantial changes above", "value": 10, "unit": "µM"}, {"measurement": "Fold change (increases) CXCR4", "setting": "CD34^+ cells [3]; CXC chemokine Receptor 4, CD34+ cells, 10 μM, 120 minutes, 37° C. vs DMSO", "value": 7.33, "unit": "fold"}, {"measurement": "Fold change (increases) DUSP4", "setting": "CD34^+ cells [3]; Dual specificity protein phosphatase 4, CD34+ cells, 10 μM, 120 minutes, 37° C. vs DMSO", "value": 25.75, "unit": "fold"}, {"measurement": "Fold change (increases) FOSL2", "setting": "CD34^+ cells [3]; Fos-related antigen 2, CD34+ cells, 10 μM, 120 minutes, 37° C. vs DMSO", "value": 8.11, "unit": "fold"}, {"measurement": "Fold change (increases) GEM", "setting": "CD34^+ cells [3]; GTP-binding protein GEM, CD34+ cells, 10 μM, 120 minutes, 37° C. vs DMSO", "value": 28.18, "unit": "fold"}, {"measurement": "Fold change (increases) HAS1", "setting": "CD34^+ cells [3]; Hyaluronan synthase 1, CD34+ cells, 10 μM, 120 minutes, 37° C. vs DMSO", "value": 55.83, "unit": "fold"}, {"measurement": "Fold change (increases) NR4A2", "setting": "CD34^+ cells [3]; Nuclear receptor related 1 protein, CD34+ cells, 10 μM, 120 minutes, 37° C. vs DMSO", "value": 22.30, "unit": "fold"}, {"measurement": "Fold change (increases) REN", "setting": "CD34^+ cells [3]; Renin, CD34+ cells, 10 μM, 120 minutes, 37° C. vs DMSO", "value": 19.50, "unit": "fold"}, {"measurement": "CXCR4 RNA expression", "setting": "CD34^+ cells [3]; WCB or CD34+ cells, 10 μM, 2 hours, 37° C. vs DMSO or 10 μM 1 hour 4° C.", "value": "increase in CXCR4 RNA expression"}, {"measurement": "Fold change (increases) CREM", "setting": "CD34^+ cells [3]; cAMP-responsive element modulator, CD34+ cells, 10 μM, 120 minutes, 37° C. vs DMSO", "value": 12.90, "unit": "fold"}, {"measurement": "Fold change (increases) COL1A1", "setting": "CD34^+ cells [3]; collagen, type I, alpha 1, CD34+ cells, 10 μM, 120 minutes, 37° C. vs DMSO", "value": 10.50, "unit": "fold"}]}]}
